The supplement of paper PMC9663587

Assays:
Experiment in all cases: GRmax, 72 h; higher = less effect;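 further: breast cell lines in 384-well plates, nine doses across a 10^4 range, Dye Drop imaging of viable cells vs DMSO and time-zero plates, GR 0 means no net growth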
SUM44PE = test system: SUM44PE
MDAMB330 = test system: MDAMB330
MCF10A = test system: MCF10A
HCC1187 = test system: HCC1187
UACC812 = test system: UACC812
EFM19 = test system: EFM19
HCC1569 = test system: HCC1569
BT549 = test system: BT549
AU565 = test system: AU565
ZR751 = test system: ZR751
MDAMB436 = test system: MDAMB436
UACC893 = test system: UACC893
HTERT_HME1 = test system: HTERT_HME1
MDAMB415 = test system: MDAMB415
BT20 = test system: BT20

SMILES | GRmax, 72 h (SUM44PE) [GR] | GRmax, 72 h (MDAMB330) [GR] | GRmax, 72 h (MCF10A) [GR] | GRmax, 72 h (HCC1187) [GR] | GRmax, 72 h (UACC812) [GR] | GRmax, 72 h (EFM19) [GR] | GRmax, 72 h (HCC1569) [GR] | GRmax, 72 h (BT549) [GR] | GRmax, 72 h (AU565) [GR] | GRmax, 72 h (ZR751) [GR] | GRmax, 72 h (MDAMB436) [GR] | GRmax, 72 h (UACC893) [GR] | GRmax, 72 h (HTERT_HME1) [GR] | GRmax, 72 h (MDAMB415) [GR] | GRmax, 72 h (BT20) [GR]
COc1cccc2c1C(=O)c1c(O)c3c(c(O)c1C2=O)C[C@@](O)(C(=O)CO)C[C@@H]3O[C@H]1C[C@H](N)[C@H](O)[C@H](C)O1 [Doxorubicin] (max 3.162 µM) | -0.677 | -0.205 | -0.324 | -0.83 | -0.919 | -0.18 | -0.132 | -0.331 | -0.452 | -0.0018 | -0.129 | -0.405 | -0.399 | -0.423 | -0.481
CO[C@H]1C[C@@H]2CC[C@@H](C)[C@@](O)(O2)C(=O)C(=O)N2CCCC[C@H]2C(=O)O[C@H]([C@H](C)C[C@@H]2CC[C@@H](OCCO)[C@H](OC)C2)CC(=O)[C@H](C)/C=C(\C)[C@@H](O)[C@@H](OC)C(=O)[C@H](C)C[C@H](C)/C=C/C=C/C=C/1C [Everolimus] (max 10 µM) | 0.19 | -0.378 | 0.789 | 0.568 | -0.0713 | 0.249 | 0.555 | 0.52 | 0.4 | 0.305 | 0.615 | 0.159 | 0.489 | 0.0852 | 0.39
CCC(=O)Nc1ccc(C(=O)Nc2ccc(Nc3ncc4c(n3)N(C)c3ccc(C)cc3C(=O)N4C)cc2)cc1 [FMF-03-145-1] | -0.0614 | -0.0541 | -0.0249 | -0.506 | -0.198 | 0.175 | -0.125 | -0.0339 | -0.153 | 0.153 | -0.189 | 0.127 | -0.0813 | 0.0653 | -0.201
COc1cc(N2CCN(C)CC2)ccc1Nc1ncc2c(n1)N(C)c1ccccc1C(=O)N2CC(F)(F)F [FMF-03-146-1] | 0.946 | 0.866 | 0.99 | 0.955 | 0.918 | 0.947 | 1.03 | 0.839 | 0.63 | 0.939 | 0.89 | 0.987 | 0.785 | 0.959 | 0.973
CN1CC[C@H](c2c(O)cc(O)c3c(=O)cc(-c4ccccc4Cl)oc23)[C@H](O)C1 [Flavopiridol] (max 1 µM) | -0.573 | -0.892 | -0.67 | -0.885 | -0.813 | -0.21 | -0.177 | -0.44 | -0.69 | -0.353 | -0.0264 | -0.464 | -0.408 | -0.303 | -0.639
CC(C)n1nc(-c2ccc3oc(N)nc3c2)c2c(N)ncnc21 [INK128/MLN0128] (max 3.162 µM) | -0.523 | -0.77 | 0.172 | 0.0961 | -0.707 | -0.128 | 0.088 | 0.0717 | -0.496 | -0.0856 | 0.211 | -0.483 | 0.197 | -0.338 | -0.0045
CC(C)NC[C@@H](C(=O)N1CCN(c2ncnc3c2[C@H](C)C[C@H]3O)CC1)c1ccc(Cl)cc1 [Ipatasertib/GDC0068] (max 10 µM) | -0.0416 | -0.657 | 0.647 | 0.409 | 0.0704 | 0.066 | 0.234 | 0.496 | 0.274 | 0.608 | 0.611 | -0.794 | 0.635 | -0.698 | 0.102
CN(C)C(=O)c1cc2cnc(Nc3ccc(N4CCNCC4)cn3)nc2n1C1CCCC1 [LEE011/Ribociclib] (max 10 µM) | 0.378 | 0.157 | 0.434 | 0.56 | 0.0889 | 0.386 | 0.897 | 0.97 | 0.244 | 0.381 | 0.951 | 0.469 | 0.292 | 0.231 | 0.092
CCNC(=O)c1noc(-c2cc(C(C)C)c(O)cc2O)c1-c1ccc(CN2CCOCC2)cc1 [Luminespib/NVP-AUY922] (max 1 µM) | -0.483 | -0.344 | -0.172 | -0.476 | -0.521 | 0.0263 | -0.0081 | -0.106 | -0.231 | 0.0576 | -0.0492 | -0.898 | -0.335 | -0.305 | -0.049
CCOc1cc2ncc(C#N)c(Nc3ccc(OCc4ccccn4)c(Cl)c3)c2cc1NC(=O)/C=C/CN(C)C [Neratinib/HKI272] (max 3.162 µM) | -0.202 | -0.655 | 0.0959 | 0.421 | -0.756 | 0.718 | 0.117 | 0.208 | -0.638 | 0.709 | 0.0162 | -0.901 | 0.0983 | 0.0922 | 0.303
O=C(c1cc(Cc2n[nH]c(=O)c3ccccc23)ccc1F)N1CCN(C(=O)C2CC2)CC1 [Olaparib/AZD2281] (max 10 µM) | 0.803 | 0.46 | 0.794 | 0.0867 | 0.199 | 0.63 | 0.565 | 0.543 | 0.572 | 0.801 | 0.238 | 0.549 | 0.591 | 0.816 | 0.606
CC(=O)O[C@H]1C(=O)[C@@]2(C)[C@H]([C@H](OC(=O)c3ccccc3)[C@]3(O)C[C@H](OC(=O)[C@H](O)[C@@H](NC(=O)c4ccccc4)c4ccccc4)C(C)=C1C3(C)C)[C@]1(OC(C)=O)CO[C@@H]1C[C@@H]2O [Paclitaxel] (max 1 µM) | -0.474 | -0.438 | -0.126 | -0.754 | -0.852 | -0.639 | 0.0183 | -0.207 | -0.498 | -0.0835 | -0.218 | -0.384 | -0.224 | -0.344 | -0.576
CS(=O)(=O)N1CCN(Cc2cc3nc(-c4cccc5[nH]ncc45)nc(N4CCOCC4)c3s2)CC1 [Pictilisib/GDC0941] (max 10 µM) | -0.205 | -0.817 | 0.193 | -0.293 | -0.601 | -0.154 | -0.054 | 0.146 | -0.405 | -0.0806 | 0.285 | -0.878 | 0.126 | -0.687 | -0.165
